Results reported in patent US6017511A, “Glycopeptide-chelator conjugates” (Resolution Pharmaceuticals Inc., priority 1997, dated 2000).
In brackets after ≈: the same amount, converted by molar mass.

Experiments:
S. aureus (ATCC 25923) = test: Filter binding assay of Tc-99m-labelled conjugates; settings: Tc-99m-labelled conjugate, 37° C.
Experimental: S. aureus (ATCC 25923)→TSB
(§6) The cultures are then subcultured by removing 50-150 mL of the culture (O.D. dependent) and transferring to a 50 mL culture flask containing 20 mL broth. The subcultures are incubated at 37° C. or 30° C. until a growth concentration of 10^8 cfu (colony forming unit)/mL is reached. The concentration of each microorganism is determined by reading the optical density (O.D.) of the subculture using a spectrophotometer. The correlation between O.D. and growth of each microorganism has been previously established.
(§7) The flasks are incubated in a shaking water bath (200 rpm) at 37° C. […] There is also a background which is a flask containing broth with no microorganism and to which the radioactivity is also added. […] The filters are then assayed for radioactivity using a gamma well counter (Cobra II; Canberra Packard). […]

E. coli (ATCC 25922) = test: Filter binding assay of Tc-99m-labelled conjugates; settings: Tc-99m-labelled conjugate, 37° C.
Experimental: E. coli (ATCC 25922)→Tryptic Soy Broth (TSB; Difco)
as §6, §7

C. albicans (ATCC 14053) = test: Filter binding assay of Tc-99m-labelled conjugates; settings: Tc-99m-labelled conjugate
Experimental: (§8) *Note: C. albicans has a longer growth cycle than the other microorganisms and, therefore, the culture is incubated for 2 days. Also, the optimum growth temperature for C. albicans is 30° C.
C. albicans (ATCC 14053)→YM Broth (YMB; Difco)
The cultures are then subcultured by removing 50-150 mL of the culture (O.D. dependent) and transferring to a 50 mL culture flask containing 20 mL broth. […] The concentration of each microorganism is determined by reading the optical density (O.D.) of the subculture using a spectrophotometer.
as §7

[1] = Filter binding assay of Tc-99m-labelled conjugates; settings: Tc-99m-labelled conjugate, zymosan suspension 50 mg/mL
Experimental: as §8
The flasks are incubated in a shaking water bath (200 rpm) at 37° C. A 10 mL zymosan suspension at 50 mg/mL and a 0.5% carrageenan mixture are also made. There is also a background which is a flask containing broth with no microorganism and to which the radioactivity is also added. At various time intervals, 200 mL of the cultures, suspensions, and the background is removed and filtered through 25 mm diam., 22 mm, cellulose acetate/nitrate, membrane filters (Millipore) using a Millipore vacuum manifold. The filters are washed 3× with 1 mL PBS. The filters are then assayed for radioactivity using a gamma well counter (Cobra II; Canberra Packard). The time intervals at which the cultures are sampled are: […]

[2] = tested on: P. aeruginosa (ATCC PAO-PR1); test: Filter binding assay of Tc-99m-labelled conjugates; settings: Tc-99m-labelled conjugate, 37° C.
Experimental: Frozen cultures of bacteria are stored in vials at -80° C. until use. To inoculate a fresh bacterial culture, the vial of bacteria is removed from the freezer and continually kept frozen by being placed on dry ice. A small amount is removed using a sterile wooden applicator and transferred to a 50 mL culture flask, with screw cap, containing 10 mL of broth medium. The culture is incubated at 37° C. on a shaker at 200 rpm overnight*. The various microorganisms or compounds and broth media used are:
P. aeruginosa (ATCC PAO-PR1)→TSB
The cultures are then subcultured by removing […] of the culture (O.D. dependent) and transferring to a 50 mL culture flask containing 20 mL broth. The subcultures are incubated at 37° C. or 30° C. until a growth concentration of 10^8 cfu (colony forming unit)/mL is reached. The concentration of each microorganism is determined by reading the optical density (O.D.) of the subculture using a spectrophotometer. […]
Once the proper O.D. has been reached, 10 mL of the subculture is transferred to a 15 mL culture flask and 1×10^6 cpm of Tc-99m-labelled compound is added. […] There is also a background which is a flask containing broth with no microorganism and to which the radioactivity is also added. […] The filters are then assayed for radioactivity using a gamma well counter (Cobra II; Canberra Packard). […]

S. aureus = test: microbe, parasite or virus in culture; format: cell-based; settings: for antimicrobial activity at the concentrations tested: S. aureus, up to 64 mg/mL
Experimental: (§1) Fresh cultures of bacteria are made from frozen stock stored at -80° C. To inoculate a fresh culture, the stock is removed from the freezer and continually kept frozen by being placed on dry ice. A small amount is removed using a sterile wooden applicator and transferred to a 50 mL culture flask, with screw cap, containing 10 mL of broth medium. The culture is incubated at 37° C. on an orbital shaker at 200 rpm overnight. The various bacteria and broth media used are:
(§2) The following day, the cultures are subcultured by transferring […] (O.D. dependent) to a new culture flask containing 20 mL broth. The subcultures are incubated at 37° C. on a shaker (200 rpm) and the bacteria are allowed to grow to mid-log phase. This is usually around 1×10^8 cfu/mL, determined by measuring the O.D. of the subculture. The correlation between O.D. and growth of each bacteria has been previously established.
(§3) Once the proper O.D. has been obtained, a 200- or 400-fold dilution is made of the subculture and 1 mL of this dilution is added to 1 mL of compound or antibiotic (i.e. 2-fold dilution) to give a final concentration of 0, 2, 4, 8, 16, 32, and 64 mg/mL compound or antibiotic. A 100-fold dilution is made from the control culture (0 mg/mL) and […] samples (i.e. 1000-fold dilution) are plated onto a TSA (tryptic soy agar; Difco). The cultures are incubated overnight at 37° C. on an orbital shaker (200 rpm). The TSA plates are also incubated overnight at 37° C.
(§4) The following day, the cultures are examined for growth or turbidity. […] samples (i.e. 10-fold dilution) of any of the cultures showing no turbidity, i.e. no growth, are plated onto TSA. The plates are incubated overnight at 37° C. and the number of cfu, if any, are counted. The control TSA plates are counted for the number of cfu for comparison with the culture plates.
(§5) MIC (minimal inhibitory concentration) is determined to be the lowest concentration at which growth of the bacteria is arrested. MBC (minimal bactericidal concentration) is determined to be the lowest concentration at which the bacteria are being killed.

E. coli = test: Antimicrobial assay; format: cell-based; settings: up to 64 mg/mL
Experimental: as §1, §2, §3, §4, §5

P. aeruginosa = test: Antimicrobial assay; format: cell-based; settings: up to 64 mg/mL
Experimental: as §1, §2, §3, §4, §5

Molecule	Filter Binding Assay Results at 2 h, S. aureus (S. aureus (ATCC 25923))	Filter Binding Assay Results at 2 h, E. coli (E. coli (ATCC 25922))	Filter Binding Assay Results at 2 h, C. albicans (C. albicans (ATCC 14053))	Filter Binding Assay Results at 2 h, Zymosan [1]	Filter Binding Assay Results at 2 h, P. aeruginosa [2]	MBC (minimal bactericidal concentration) (S. aureus)	MIC (minimal inhibitory concentration) (S. aureus)	antimicrobial activity at the concentrations tested (S. aureus)	antimicrobial activity at the concentrations tested (E. coli)	antimicrobial activity at the concentrations tested (P. aeruginosa)	MBC (S. aureus; Staphylococcus aureus, read-out: MBC (minimal bactericidal concentration))
DimethylGly-Ser-Cys(Acm)-(βAla)3 -Lys(N^ε -Vancomycin)-Gly-OH [(IB)]	22%	18%	5%	42%							
CN[C@H](CC(C)C)C(=O)N[C@H]1C(=O)N[C@@H](CC(N)=O)C(=O)N[C@H]2C(=O)N[C@H]3C(=O)N[C@H](C(=O)N[C@H](C(=O)NCCCNC(=O)CNC(=O)C(CSCNC(C)=O)NC(=O)C(CO)NC(=O)CN(C)C)c4cc(O)cc(O)c4-c4cc3ccc4O)[C@H](O)c3ccc(c(Cl)c3)Oc3cc2cc(c3O[C@@H]2O[C@H](CO)[C@@H](O)[C@H](O)[C@H]2O[C@H]2C[C@](C)(N)[C@H](O)[C@H](C)O2)Oc2ccc(cc2Cl)[C@H]1O (stereo partly drawn) [(IA), DimethylGly-Ser-Cys(Acm)-Gly-NH(CH2)3 NH-Vancomycin]	48%	31%	21%	35%	25%	32 mg/mL (≈ 16.8 mM)	16 to 32 mg/mL	antimicrobial against only S. aureus	antimicrobial against only S. aureus	antimicrobial against only S. aureus	
CN[C@H](CC(C)C)C(=O)N[C@H]1C(=O)N[C@@H](CC(N)=O)C(=O)N[C@H]2C(=O)N[C@H]3C(=O)N[C@H](C(=O)N[C@H](C(=O)O)c4cc(O)cc(O)c4-c4cc3ccc4O)[C@H](O)c3ccc(c(Cl)c3)Oc3cc2cc(c3O[C@@H]2O[C@H](CO)[C@@H](O)[C@H](O)[C@H]2O[C@H]2C[C@](C)(N)[C@H](O)[C@H](C)O2)Oc2ccc(cc2Cl)[C@H]1O [Vancomycin, reference compound]								antimicrobial against only S. aureus	antimicrobial against only S. aureus	antimicrobial against only S. aureus	32 to 64 mg/mL (≈ 22.1 to 44.2 mM)
